Data as given in patent publication US7723112B2, “Compositions and methods for treating and diagnosing cancer” (The Regents of the University of Michigan, priority 2005, dated 2010).
Like-named read-outs stand apart in the source and are kept apart here.

Tested on: UM-C4 tumor cells
Conditions: monitored four months
Description: Mice were monitored for tumor growth over a period of four months and scored as either positive or negative for tumor growth such that Poisson statistics could be done to assess TG cell frequency among the input population.

## O=P1(N(CCCl)CCCl)NCCCO1 (stereo not shown) [CPA, Cyclophosphamide]
Input of 56 bulk tumor cells from CPA-treated tumors
  mice developing tumors / mice injected: 4/8
Input of 167 bulk tumor cells from CPA-treated tumors
  mice developing tumors / mice injected: 5/8
Input of 500 bulk tumor cells from CPA-treated tumors
  mice developing tumors / mice injected: 9/9
Input of 1,500 bulk tumor cells from CPA-treated tumors
  mice developing tumors: All eight
